From patent US20210290676A1, “IMPROVING THE EFFICACY AND SAFETY OF ADOPTIVE CELLULAR THERAPIES” (University of Southern California, priority 2018, published 2021) come the findings set out here.

In data set [1] the test system is CD45RA+CCR7+CD62L+ T cells. Briefly: Flow cytometry for CD45RA, CCR7 and CD62L on inhibitor-treated T cells (all T cells). It is filed as cell-based, human. The conditions noted are these: cells cultured for 14 days. The method, boiled down:
(§1)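 Donor T cells were isolated from PBMC with CD3 microbeads and activated overnight in XVIVO 15 with IL2 50 IU/ml plus 30 ng/ml anti-CD3/CD28. They were treated with drugs from day 1, with medium and drug refreshed on days 7 and 13. After 13–14 days, cells were stained for CD8, CD45RA, CCR7 and CD62L (4 °C, 1 h) and analysed by flow cytometry.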

For data set [2], the system named is CD8+CD45RA+CCR7+CD62L+ T cells. Put plainly: Flow cytometry for CD8, CD45RA, CCR7 and CD62L on inhibitor-treated T cells. The class given is cell-based, human. The conditions noted are these: cells cultured for 14 days. The method, boiled down: as §1
Background: A flow cytometer gives signals particle by particle.

In the next data set the test system is Nalm6-GLuc cells. Briefly: Blinatumomab induced cell death by inhibitor-treated T cells, Matador cytotoxicity assay. The following applies: Blinatumomab 100 ng/million T cells, overnight. The class given is cell-based. How it is done:
After 20 days of treatment with the inhibitors, cells from the preceding experiment were tested for their ability to induce Blinatumomab induced cell death using the Matador cytotoxicity assay. For this purpose, untreated and inhibitors-treated T cells were plated in a 24 well plate at 2×10^5 cells/well either alone or in the presence of 2×10^5 Nalm6-GLuc cells in XVIVO medium without any additional growth factors. Blinatumomab (Blincyto) was added at final concentration of 100 ng/million T cells. Cells were cultured overnight and next day supernatant was collected and assayed using the Matador assay. For the Matador Assay, 15 μl of supernatant was added to 15 μl of XVIVO medium in each well of a 384-well plate and hGLuc assay was done by adding 15 μl of 1:100 CTZ per well in well mode.

Data set [3] relates to Pgp+ (DiOC2(3)-dye effluxing cells) and CD62L+ T cells. Put plainly: DiOC2(3) dye efflux plus CD62L-APC staining, flow cytometry of inhibitor-treated T cells. The following applies: treatment for 13 days, IL2 + CD3 and CD28 antibodies. The class given is cell-based, human. The method, boiled down:
(§2)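 Donor PBMC-derived T cells, stimulated with IL2 (50 IU/ml) and/or CD3/CD28 antibodies (30 ng/ml), were exposed to inhibitors from day 1 for about 13 days with periodic drug re-addition. Cells were loaded with DiOC2(3) (60 ng/ml, 4° C, 40 min), effluxed at 37° C for 90 min, and optionally stained with CD62L-APC. Flow cytometry scored DiOC2(3)-dull (Pgp+) and CD62L+ populations.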

Data set [4] has as its system Pgp+ (DiOC2(3)-dye effluxing) T cells. Briefly: DiOC2(3) dye efflux flow cytometry of inhibitor-treated T cells. It is filed as cell-based, human. The following applies: treatment for 13 days, IL2 + CD3 and CD28 antibodies. In a few lines: as §2
The nature of data set [5]: Leukapheresis with and without mobilization and manufacturing of CAR-T/TCR-T cells from cancer patients. The class given is in vivo, human. On the procedure:
A study is conducted to compare the generation of cell therapy products from cancer patients who have received 2 or more cycles of prior chemotherapy. Patients with different types of different cancers (e.g., diffuse large B cell lymphoma, acute B-ALL, CLL, multiple myeloma, breast cancer, ovarian cancer, lung cancer etc.) are eligible. Leukapheresis products are collected from the subjects with and without mobilization with Perixafor (0.24 mg/kg subcutaneously daily on days 1-3). T cells are isolated and used for manufacturing of CAR-T and TCR-T cells using lentiviral mediated gene transduction as described in the preceding sections.

Another data set concerns T cells. Briefly: In vitro expansion of CAR/TCR T cells with bispecific engagers and antigen presenting cells or substrate (CFSE staining). It is filed as cell-based, human. On the procedure: Buffy coat cells are obtained from healthy de-identified adult donors from the Blood Bank and used to isolate peripheral blood mononuclear cells (PBMC) by Ficoll-Hypaque gradient centrifugation. PBMC are either used as such or used to isolate T cells using CD3 magnetic microbeads (Miltenyi Biotech) and following the manufacturer's instructions. PBMC or isolated T cells are re-suspended in XVIVO medium (Lonza) supplanted with 10 ng/ml CD3 antibody, 10 ng/ml CD28 antibody and 100 IU recombinant human-IL2. In an alternate embodiment, PBCM or T cells are activated by resuspending them at concentration of 5×10^5 cells/ml in fresh XVIVO media containing Blinatumomab (10 ng/ml) plus irradiated (100 Gy) REC-1 cells (Mantle Cell lymphoma; ATCC Catalog #CRL-3004) at concentration of 5×10^6 cells/ml in the presence of 50 IU recombinant human-IL2. In another alternate embodiment, the cell culture medium further contains a purified CD19×CD28 bispecific antibody (SEQ ID NO: 2708, 2705 or 2706) and/or a CD19×41BB bispecific antibody (SEQ ID NO: 2761, 2762, 2758 or 2764) each at concentration of about 10 ng/ml. Cells are cultured at 37° C., in a 5% CO2 humidified incubator. Cells are activated in the above medium for 1 day prior to infection with lentiviral vectors encoding a CAR or a TCR (e.g., SEQ ID NO: 2822 to 2835) or a TCR (SEQ ID NO: 2836). In general, primary cells (e.g. T cells) are infected in the morning using spin-infection (1800 rpm for 90 minutes at 37° C. with 300 μl of concentrated virus that has been re-suspended in XVIVO medium in the presence of 8 μg/ml of Polybrene® (Sigma, Catalog no. H9268). After the infection, the cells are pelleted and resuspended at concentration of 5×10^5 cells/ml in fresh XVIVO media containing Blinatumomab (10 ng/ml) plus irradiated (100 Gy) REC-1 (Mantle Cell lymphoma; ATCC Catalog #CRL-3004) cells (5×10^6 cells/ml) and 50 IU recombinant human-IL2. Cells are cultured in the above medium for 10-15 days. Culture media is supplemented with fresh REC-1 cells, blinatumomab and IL2 every 2-4 days. […] The expanded CAR-T cells are subsequently used for in vitro cytotoxicity studies, in vivo efficacy studies in NSG mice and clinical trial of patients with cancers expressing the antigens targeted by the CAR/TCR using methods known in the art.
The above experiment is also repeated using CD19+ RAJI and NALM6 cells. […] Thus, mantle cell lymphoma cells and, in particular, REC-1 cells are the preferred antigen presenting cells for expansion of T cells (e.g., CAR-T cells, TCR-T cells and TILs) when used in conjuction with bispecific T cell engagers that has at least one binding domain that binds to an antigen expressed on REC-1 (e.g, CD19, CD20, CD22 and BCMA). […]

Regarding `CCC(CC)n1ccc2c(C(=O)NCc3c(C)cc(C)[nH]c3=O)cc(C#N)cc21` [EI1], the “GATE P6 CD45RA(FITC)+, CCR7 (PE)+, CD62L(APC)” value (from here on “GATE P6 CD45RA(FITC)+, CCR7”) in data set [1] (500 nM) was determined as 67.64%; in data set [1] (1 μM) it was 66.83%. In addition, the figures for the “GATE P4 CD8(PerCP)+, CD45RA(FITC)+, CCR7 (PE)+, CD62L(APC)” value (“GATE P4 CD8(PerCP)+, CD45RA(FITC)+, CCR7” below) in data set [2] (500 nM) and in data set [2] (1 μM) were 76.19% and 78.47%, respectively. For the same compound, in the data set with Nalm6-GLuc cells (T cells after 20 days of treatment at 500 nM), the “Blinatumomab induced cytotoxicity compared to untreated T cells” value is listed as “significant increase in cytotoxicity”. Also, the “p5: double +ve pgp+ and CD62L-APC+ from Live cells” value (“p5: double +ve pgp+ and CD62L-APC+” below) in data set [3] (500 nM) came to 10.2; in data set [3] (1 μM), 19.21. The “p2: pgp+ from Live cells” value in data set [4] (500 nM) came to 33.53; in data set [4] (1 μM) it was 59.77.

For the compound `Cc1cc(C)c(CNC(=O)c2cc(-c3ccc(CN4CCOCC4)cc3)cc3c2cnn3C2CCCC2)c(=O)[nH]1` [EPZ005687], the “GATE P6 CD45RA(FITC)+, CCR7” value in data set [1] (10 nM) is listed as 64.01%; in data set [1] (100 nM) it was 69.92%. In addition, the “GATE P4 CD8(PerCP)+, CD45RA(FITC)+, CCR7” value in data set [2] (10 nM) is reported as 74.86%; in data set [2] (100 nM), 79.65%. Moreover, in the data set on Nalm6-GLuc cells (T cells after 20 days of treatment at 100 nM), the “Blinatumomab induced cytotoxicity compared to untreated T cells” value is given as “significant increase in cytotoxicity”. In addition, the “p5: double +ve pgp+ and CD62L-APC+” value was determined as 5.21 in data set [3] (10 nM) and 3.87 in data set [3] (100 nM). Moreover, the “p2: pgp+ from Live cells” value was 23.99 in data set [4] (10 nM) and 16.94 in data set [4] (100 nM).

For `Cc1cc(=O)n(C)c2cc(N3C(=O)CC[C@H](NS(=O)(=O)CC(C)C)[C@H]3c3ccc(Cl)cc3)ccc12` [LP99], the entries for the “GATE P6 CD45RA(FITC)+, CCR7” value in data set [1] (500 nM) and in data set [1] (1 μM) were 69.67% and 67.58%, respectively. Also, the “GATE P4 CD8(PerCP)+, CD45RA(FITC)+, CCR7” value in data set [2] (500 nM) stood at 79.25%; in data set [2] (1 μM), 79.77%. Moreover, in the data set on Nalm6-GLuc cells (T cells after 20 days of treatment at 1 μM), the “Blinatumomab induced cytotoxicity compared to untreated T cells” value is listed as “significant increase in cytotoxicity”. The “p5: double +ve pgp+ and CD62L-APC+” value was determined as 3.52 in data set [3] (500 nM) and 4.18 in data set [3] (1 μM). Also, the “p2: pgp+ from Live cells” value in data set [4] (500 nM) was 19.46; in data set [4] (1 μM) it was 20.66.

In the case of `c1cc(CN2CCCNCCNCCCNCC2)ccc1CN1CCCNCCNCCCNCC1` [Perixafor, 1,1′-[1,4-phenylenebis(methylene)]bis [1,4,8,11-tetraazacyclotetradecane]], in data set [5] (cancer patients with 2 or more cycles of prior chemotherapy, with versus without mobilization), the “yield of T cells in the initial leukapheresis product” value is given as “improves the yield”. The “effect on gene transduction, CAR/TCR expression, in vitro and in vivo expansion, cytotoxicity, cytokine production and anti-tumor efficacy of CAR-T/TCR-T products” value in data set [5] (with versus without mobilization) was “no major adverse effect”.

On to “Blinatumomab: a CD19×CD3 bispecific antibody”, for which the “expansion of CAR-T cells” value in the data set with T cells (10 ng/ml with CD19-ECD beads, CD28 antibody 10 ng/ml and IL2 50 IU, 10-25 days) was “Robust expansion”. The “expansion of cells, CFSE staining” value in the data set on T cells (10 ng/ml with irradiated REC-1 cells and 50 IU IL2, 10-15 days) was “Robust expansion”. Moreover, the “degree of expansion of CAR or TCR expressing T cells” value in the data set on T cells (co-culture with CD19+ RAJI and NALM6 cells instead of REC-1 cells) was “less than that observed with REC-1 cells”. Also, the “expansion of CAR-expressing PBMC and/or T cells” value in the data set with T cells (combination of Blinatumomab, CD19×CD28 bispecific antibody, REC-1 cells and IL2) is “Robust expansion”.

On to “GM-CSF: cytokine used as mobilization agent”, for which the “yield of leukapheresis product for generation of CAR-T cells” value in data set [5] (mobilization prior to leukapheresis) was “improve the yield”.
